From patent publication US8192962B2, “Processes for detecting toxic substances” (Daikin Industries, Ltd., priority 2001, dated 2012)

Test system: Transport facilitation protein genes
Experiment: DNA chip mRNA expression in yeast, transport facilitation protein genes (Table 5)
Assay type: cell-based, Saccharomyces cerevisiae S288C
Outline: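 Ratios compare mRNA levels in stressed and control S. cerevisiae. Each toxicant was applied for two hours to log-phase cultures at 25° C. at a sub-lethal, growth-inhibiting level; fluorescent cDNA (Cy3- or Cy5-dUTP) was hybridized to a genome-wide yeast chip for over 12 h at 65° C.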

Structure (SMILES): S=C([S-])NCCNC(=S)[S-].[Zn+2] [(11), zinc N,N′-ethylenebis(dithiocarbamate)]
- The level of expressed mRNA in the presence of chemical substance/The level of expressed mRNA in the absence of chemical substance (yeast gene YHL035C): 0.9
- The level of expressed mRNA in the presence of chemical substance/The level of expressed mRNA in the absence of chemical substance (yeast gene YHL036W): 2.3
- The level of expressed mRNA in the presence of chemical substance/The level of expressed mRNA in the absence of chemical substance (yeast gene YHL040C): 1.7
- The level of expressed mRNA in the presence of chemical substance/The level of expressed mRNA in the absence of chemical substance (yeast gene YHL047C): 1.0
- The level of expressed mRNA in the presence of chemical substance/The level of expressed mRNA in the absence of chemical substance (yeast gene YHR026W): 1.4
- The level of expressed mRNA in the presence of chemical substance/The level of expressed mRNA in the absence of chemical substance (yeast gene YHR048W): 2.0
- The level of expressed mRNA in the presence of chemical substance/The level of expressed mRNA in the absence of chemical substance (yeast gene YHR092C): 1.5
- The level of expressed mRNA in the presence of chemical substance/The level of expressed mRNA in the absence of chemical substance (yeast gene YHR094C): 0.6
- The level of expressed mRNA in the presence of chemical substance/The level of expressed mRNA in the absence of chemical substance (yeast gene YHR175W): 1.1
- The level of expressed mRNA in the presence of chemical substance/The level of expressed mRNA in the absence of chemical substance (yeast gene YIL006W): 1.0
- The level of expressed mRNA in the presence of chemical substance/The level of expressed mRNA in the absence of chemical substance (yeast gene YIL022W): 1.0
- The level of expressed mRNA in the presence of chemical substance/The level of expressed mRNA in the absence of chemical substance (yeast gene YIL056W): 0.7
- The level of expressed mRNA in the presence of chemical substance/The level of expressed mRNA in the absence of chemical substance (yeast gene YIL088C): 1.8
- The level of expressed mRNA in the presence of chemical substance/The level of expressed mRNA in the absence of chemical substance (yeast gene YJL034W): 1.3
- The level of expressed mRNA in the presence of chemical substance/The level of expressed mRNA in the absence of chemical substance (yeast gene YJL212C): 0.9
- The level of expressed mRNA in the presence of chemical substance/The level of expressed mRNA in the absence of chemical substance (yeast gene YJL219W): 2.3
- The level of expressed mRNA in the presence of chemical substance/The level of expressed mRNA in the absence of chemical substance (yeast gene YJR077C): 1.6
- The level of expressed mRNA in the presence of chemical substance/The level of expressed mRNA in the absence of chemical substance (yeast gene YJR106W): 1.6
- The level of expressed mRNA in the presence of chemical substance/The level of expressed mRNA in the absence of chemical substance (yeast gene YJR121W): 0.9
- The level of expressed mRNA in the presence of chemical substance/The level of expressed mRNA in the absence of chemical substance (yeast gene YKL016C): 1.3
- The level of expressed mRNA in the presence of chemical substance/The level of expressed mRNA in the absence of chemical substance (yeast gene YKL146W): 0.9
- The level of expressed mRNA in the presence of chemical substance/The level of expressed mRNA in the absence of chemical substance (yeast gene YKR039W): 1.9
- The level of expressed mRNA in the presence of chemical substance/The level of expressed mRNA in the absence of chemical substance (yeast gene YKR067W): 1.3
- The level of expressed mRNA in the presence of chemical substance/The level of expressed mRNA in the absence of chemical substance (yeast gene YLL028W): 0.7
- The level of expressed mRNA in the presence of chemical substance/The level of expressed mRNA in the absence of chemical substance (yeast gene YLL055W): 3.6
- The level of expressed mRNA in the presence of chemical substance/The level of expressed mRNA in the absence of chemical substance (yeast gene YLR081W): 2.6
- The level of expressed mRNA in the presence of chemical substance/The level of expressed mRNA in the absence of chemical substance (yeast gene YLR295C): 1.3
- The level of expressed mRNA in the presence of chemical substance/The level of expressed mRNA in the absence of chemical substance (yeast gene YLR348C): 1.3
- The level of expressed mRNA in the presence of chemical substance/The level of expressed mRNA in the absence of chemical substance (yeast gene YLR378C): 1.0
- The level of expressed mRNA in the presence of chemical substance/The level of expressed mRNA in the absence of chemical substance (yeast gene YMR011W): 1.5
- The level of expressed mRNA in the presence of chemical substance/The level of expressed mRNA in the absence of chemical substance (yeast gene YMR162C): 1.7
- The level of expressed mRNA in the presence of chemical substance/The level of expressed mRNA in the absence of chemical substance (yeast gene YMR203W): 2.3
- The level of expressed mRNA in the presence of chemical substance/The level of expressed mRNA in the absence of chemical substance (yeast gene YNL055C): 1.9
- The level of expressed mRNA in the presence of chemical substance/The level of expressed mRNA in the absence of chemical substance (yeast gene YNL259C): 1.6
- The level of expressed mRNA in the presence of chemical substance/The level of expressed mRNA in the absence of chemical substance (yeast gene YNR072W): 1.4
- The level of expressed mRNA in the presence of chemical substance/The level of expressed mRNA in the absence of chemical substance (yeast gene YOL119C): 3.4
- The level of expressed mRNA in the presence of chemical substance/The level of expressed mRNA in the absence of chemical substance (yeast gene YOL156W): 1.1
- The level of expressed mRNA in the presence of chemical substance/The level of expressed mRNA in the absence of chemical substance (yeast gene YOL158C): 0.7
- The level of expressed mRNA in the presence of chemical substance/The level of expressed mRNA in the absence of chemical substance (yeast gene YOL163W): 1.6
- The level of expressed mRNA in the presence of chemical substance/The level of expressed mRNA in the absence of chemical substance (yeast gene YOR035C): 1.0
- The level of expressed mRNA in the presence of chemical substance/The level of expressed mRNA in the absence of chemical substance (yeast gene YOR130C): 0.6
- The level of expressed mRNA in the presence of chemical substance/The level of expressed mRNA in the absence of chemical substance (yeast gene YOR153W): 1.0
- The level of expressed mRNA in the presence of chemical substance/The level of expressed mRNA in the absence of chemical substance (yeast gene YOR270C): 1.5
- The level of expressed mRNA in the presence of chemical substance/The level of expressed mRNA in the absence of chemical substance (yeast gene YOR273C): 1.5
- The level of expressed mRNA in the presence of chemical substance/The level of expressed mRNA in the absence of chemical substance (yeast gene YOR316C): 2.4
- The level of expressed mRNA in the presence of chemical substance/The level of expressed mRNA in the absence of chemical substance (yeast gene YOR328W): 1.1
- The level of expressed mRNA in the presence of chemical substance/The level of expressed mRNA in the absence of chemical substance (yeast gene YOR332W): 1.5
- The level of expressed mRNA in the presence of chemical substance/The level of expressed mRNA in the absence of chemical substance (yeast gene YOR348C): 1.1
- The level of expressed mRNA in the presence of chemical substance/The level of expressed mRNA in the absence of chemical substance (yeast gene YPL036W): 0.8
- The level of expressed mRNA in the presence of chemical substance/The level of expressed mRNA in the absence of chemical substance (yeast gene YPL134C): 1.7
- The level of expressed mRNA in the presence of chemical substance/The level of expressed mRNA in the absence of chemical substance (yeast gene YPL265W): 1.8
- The level of expressed mRNA in the presence of chemical substance/The level of expressed mRNA in the absence of chemical substance (yeast gene YPL271W): 1.7
- The level of expressed mRNA in the presence of chemical substance/The level of expressed mRNA in the absence of chemical substance (yeast gene YPR124W): 2.0
- The level of expressed mRNA in the presence of chemical substance/The level of expressed mRNA in the absence of chemical substance (yeast gene YPR192W): 0.7
- The level of expressed mRNA in the presence of chemical substance/The level of expressed mRNA in the absence of chemical substance (yeast gene YPR194C): 0.7
